Consider 48 compounds from patent US10093660B2, “Sulfoximine substituted quinazolines for pharmaceutical compositions” (EVOTEC INTERNATIONAL GMBH, priority 2013, dated 2018).

For one assay, the target named is MNK2a (Homo sapiens (Human), UniProt Q9HBH9). Description: MNK2a in vitro kinase assay (Assay 2), ADP-Glo. The assay is classed as biochemical. As to conditions: assay 2; read-out: MNK2 IC50. The text has this: B. MNK2a In Vitro Kinase Assay (Assay 2)
(In ADP-Glo the light output rises with the ADP produced.)

The next assay deals with MNK1a (Homo sapiens (Human), UniProt Q9BUB5). In words: MNK1 in vitro kinase assay (Assay 3), Z'-LYTE. The settings on record: for inhibition at 1 µM: compound concentration of 1 μM, read-out: MNK1 % INH. It counts as biochemical.
MNK1a, sequence (Q9BUB5 other isoform, or with tags, fused parts or gaps): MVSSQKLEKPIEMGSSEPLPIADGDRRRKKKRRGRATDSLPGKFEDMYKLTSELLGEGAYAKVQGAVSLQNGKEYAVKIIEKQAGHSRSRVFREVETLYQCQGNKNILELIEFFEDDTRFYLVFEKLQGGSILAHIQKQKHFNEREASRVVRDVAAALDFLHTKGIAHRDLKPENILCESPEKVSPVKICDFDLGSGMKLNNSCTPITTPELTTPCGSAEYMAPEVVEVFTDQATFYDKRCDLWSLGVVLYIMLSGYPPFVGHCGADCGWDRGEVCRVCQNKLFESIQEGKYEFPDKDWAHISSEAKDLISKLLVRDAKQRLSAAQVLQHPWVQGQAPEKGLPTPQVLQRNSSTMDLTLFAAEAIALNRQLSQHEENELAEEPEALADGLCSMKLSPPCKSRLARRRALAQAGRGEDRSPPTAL

MNK2a, sequence (Q9HBH9 whole entry): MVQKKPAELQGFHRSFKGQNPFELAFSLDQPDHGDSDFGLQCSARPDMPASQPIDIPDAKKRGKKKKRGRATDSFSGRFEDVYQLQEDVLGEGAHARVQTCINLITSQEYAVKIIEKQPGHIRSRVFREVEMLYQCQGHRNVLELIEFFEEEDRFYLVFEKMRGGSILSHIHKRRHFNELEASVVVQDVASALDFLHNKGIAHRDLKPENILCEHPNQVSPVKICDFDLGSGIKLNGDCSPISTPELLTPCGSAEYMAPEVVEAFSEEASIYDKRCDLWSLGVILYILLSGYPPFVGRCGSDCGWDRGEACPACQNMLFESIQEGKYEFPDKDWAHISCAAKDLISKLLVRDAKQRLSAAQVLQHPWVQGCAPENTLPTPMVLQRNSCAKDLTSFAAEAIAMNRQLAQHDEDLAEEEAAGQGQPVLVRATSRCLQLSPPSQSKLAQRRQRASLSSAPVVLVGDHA

As usually defined, the IC50 is the concentration needed to halve the response being measured. In the case of `O=S1(=Nc2cc(Cl)c3c(Nc4ccc(F)cc4O[C@@H]4COC[C@@H]4O)ncnc3c2)CCCC1` (single isomer, unassigned) [Example 14.9], the IC50 on MNK2a was 3 nM. Also, the inhibition at 1 µM on MNK1a came out at 100%.
The matching figures for `O=S1(=Nc2cc(Cl)c3c(Nc4ccc(F)cc4O[C@H]4COC[C@H]4O)ncnc3c2)CCCC1` (single isomer, unassigned) [Example 14.10]: 2 nM and 101%.
The matching figures for `CC[S@](C)(=O)=Nc1cc(C)c2c(Nc3ccc(F)cc3O[C@H]3COC[C@@H]3O)ncnc2c1` (single isomer, unassigned) [Example 14.11]: 4 nM and 96%.
For `CC[S@@](C)(=O)=Nc1cc(C)c2c(Nc3ccc(F)cc3O[C@H]3COC[C@@H]3O)ncnc2c1` (single isomer, unassigned) [Example 14.12], the IC50 at MNK2a is 15 nM. On MNK1a, the inhibition at 1 µM worked out at 86%.
As to `Cc1cc(N=S2(=O)CCCC2)cc2ncnc(Nc3ccc(F)cc3O[C@H]3COC[C@H]3C#N)c12` [Example 1.1], the concentration for half-maximal inhibition (IC50) on MNK2a amounted to 9 nM; against MNK1a, 104 nM.
For `Cc1cc(N=S(C)(C)=O)cc2ncnc(Nc3ccc(F)cc3O[C@H]3COC[C@H]3C#N)c12` [Example 1.2] the same measures were 19 nM and 383 nM.
For `O=S1(=Nc2cc(Cl)c3c(Nc4ccc(F)cc4O[C@H]4COC[C@@H]4O)ncnc3c2)CCC1` [Example 1.7] the same measures were 2 nM and 18 nM.
As to `O=S1(=Nc2cc(Cl)c3c(Nc4ccc(F)cc4O[C@H]4COC[C@@H]4O)ncnc3c2)CCCC1` [Example 1.9], the results for the IC50 at MNK2a and against MNK1a were 2 nM and 28 nM, respectively. For the same compound, the inhibition at 1 µM at MNK1a turned out to be 98%.
With `CS(C)(=O)=Nc1cc(OC(F)F)c2c(Nc3ccc(F)cc3O[C@H]3COC[C@@H]3O)ncnc2c1` [Example 1.11], the IC50 at MNK2a worked out at 32 nM. Moreover, the inhibition at 1 µM on MNK1a is 64%.
The matching figures for `CS(C)(=O)=Nc1cc(C(F)(F)F)c2c(Nc3ccc(F)cc3O[C@H]3COC[C@@H]3O)ncnc2c1` [Example 1.12]: 4 nM and 88%.
As to `O=S1(=Nc2cc(Cl)c3c(Nc4cccnc4O[C@H]4COC[C@@H]4O)ncnc3c2)CCC1` [Example 1.13], the IC50 on MNK2a came out at 4 nM. Besides, the inhibition at 1 µM at MNK1a was 100%.
For `CS(C)(=O)=Nc1cc(Cl)c2c(Nc3cccnc3O[C@H]3COC[C@@H]3O)ncnc2c1` [Example 1.14] the same measures were 5 nM and 96%.
On to `O=S1(=Nc2cc(Cl)c3c(Nc4cccnc4O[C@H]4COC[C@@H]4O)ncnc3c2)CCCC1` [Example 1.15], for which the IC50 at MNK2a is 3 nM. Besides, on MNK1a, 34 nM corresponded to half-maximal inhibition (IC50) and the inhibition at 1 µM stood at 103%.
In the case of `O=S1(=Nc2cc(Cl)c3c(Nc4ccc(Cl)nc4O[C@H]4COC[C@@H]4O)ncnc3c2)CCC1` [Example 1.16], the IC50 at MNK2a was determined as 2 nM. Moreover, the inhibition at 1 µM at MNK1a came to 96%.
For `O=S1(=Nc2cc(Cl)c3c(Nc4ccc(Cl)nc4O[C@H]4COC[C@@H]4O)ncnc3c2)CCCC1` [Example 1.17] the same measures were 2 nM and 103%.
For `CS(C)(=O)=Nc1cc(Br)c2c(Nc3ccc(F)cc3O[C@H]3COC[C@@H]3O)ncnc2c1` [Example 1.18], on MNK2a, the IC50 came out at 2 nM. In addition, the inhibition at 1 µM on MNK1a was 97%.
For `CS(C)(=O)=Nc1cc(Cl)c2c(Nc3ccc(Cl)nc3O[C@H]3COC[C@@H]3O)ncnc2c1` [Example 1.19] the same measures were 4 nM and 99%.
For `O=S1(=Nc2cc(F)c3c(Nc4ccc(Cl)nc4O[C@H]4COC[C@@H]4O)ncnc3c2)CCCC1` [Example 1.20] the same measures were 2 nM and 97%.
For `CS(C)(=O)=Nc1cc(F)c2c(Nc3ccc(Cl)nc3O[C@H]3COC[C@@H]3O)ncnc2c1` [Example 1.21] the same measures were 7 nM and 93%.
For `O=S1(=Nc2cc(Cl)c3c(Nc4ccc(F)cc4O[C@@H]4COC[C@H]4O)ncnc3c2)CCC1` [Example 1.22], the IC50 at MNK2a was 1 nM. The inhibition at 1 µM on MNK1a was 92%.
The matching figures for `Cc1cc(N=S(C)(C)=O)cc2ncnc(Nc3ccc(Cl)cc3O[C@H]3COC[C@@H]3O)c12` [Example 1.23]: 5 nM and 99%.
The matching figures for `O=S1(=Nc2cc(F)c3c(Nc4ccc(Cl)nc4O[C@H]4COC[C@@H]4O)ncnc3c2)CCC1` [Example 1.24]: 3 nM and 91%.
For `O=S1(=Nc2cc(Cl)c3c(Nc4ccc(F)cc4O[C@@H]4COC[C@H]4O)ncnc3c2)CCCC1` [Example 1.25] the same measures were 2 nM and 97%.
As for `CS(C)(=O)=Nc1cc(Cl)c2c(Nc3ccc(F)cc3O[C@@H]3COC[C@H]3O)ncnc2c1` [Example 1.26], the IC50 on MNK2a was 3 nM. The inhibition at 1 µM at MNK1a is 99%.
For `Cc1cc(N=S2(=O)CCCC2)cc2ncnc(Nc3ccc(Cl)cc3O[C@H]3COC[C@@H]3O)c12` [Example 1.27], the IC50 at MNK2a was 3 nM; against MNK1a, 33 nM.
For `O=S1(=Nc2cc(C(F)(F)F)c3c(Nc4ccc(F)cc4O[C@H]4COC[C@@H]4O)ncnc3c2)CCCC1` [Example 1.28], the IC50 at MNK2a came to 4 nM. Moreover, the inhibition at 1 µM on MNK1a amounted to 96%.
The matching figures for `Cc1cc(N=S2(=O)CCC2)cc2ncnc(Nc3ccc(Cl)cc3O[C@H]3COC[C@@H]3O)c12` [Example 1.29]: 2 nM and 100%.
For `Cc1cc(N=S2(=O)CCC2)cc2ncnc(Nc3ccc(Cl)cc3O[C@@H]3COC[C@H]3O)c12` [Example 1.30] the same measures were 3 nM and 93%.
In the case of `Cc1cc(N=S(C)(C)=O)cc2ncnc(Nc3ccc(Cl)cc3O[C@@H]3COC[C@H]3O)c12` [Example 1.31], at MNK2a, the IC50 amounted to 6 nM. Further, the inhibition at 1 µM at MNK1a was 91%.
Take `Cc1cc(N=S2(=O)CCCC2)cc2ncnc(Nc3ccc(Cl)cc3O[C@@H]3COC[C@H]3O)c12` [Example 1.32]: at MNK2a, the IC50 was determined as 4 nM. Besides, the inhibition at 1 µM on MNK1a is 94%.
For the compound `Cc1c(F)c(N=S(C)(C)=O)cc2ncnc(Nc3ccc(F)cc3O[C@H]3COC[C@@H]3O)c12` [Example 1.33], the IC50 at MNK2a turned out to be 8 nM. Moreover, the inhibition at 1 µM on MNK1a turned out to be 96%.
For `Cc1cc(N=S2(=O)CCCC2)cc2ncnc(Nc3ccc(F)cc3O[C@@H]3CN(C)C[C@H]3O)c12` [Example 2.5] the same measures were 17 nM and 85%.
For `Cc1cc(N=S(C)(C)=O)cc2ncnc(Nc3ccc(F)cc3O[C@@H]3CN(C)C[C@H]3O)c12` [Example 2.6] the same measures were 91 nM and 63%.
For `Cc1cc(N=S(C)(C)=O)cc2ncnc(Nc3ccc(F)cc3O[C@@H]3CN(S(C)(=O)=O)C[C@H]3O)c12` [Example 2.11], the IC50 at MNK2a is 14 nM. At MNK1a, the inhibition at 1 µM worked out at 79%.
For `Cc1cc(N=S2(=O)CCCC2)cc2ncnc(Nc3ccc(F)cc3O[C@@H]3CN(S(C)(=O)=O)C[C@H]3O)c12` [Example 2.12], the IC50 amounted to 3 nM on MNK2a and 94 nM against MNK1a.
As for `CC(=O)N1C[C@@H](O)[C@H](Oc2cc(F)ccc2Nc2ncnc3cc(N=S4(=O)CCCC4)cc(C)c23)C1` [Example 2.13], the IC50 at MNK2a stood at 16 nM. For the same compound, at MNK1a, the inhibition at 1 µM was found to be 90%.
As to `CO[C@@H]1CN(C(=O)OCc2ccccc2)C[C@H]1Oc1cc(F)ccc1Nc1ncnc2cc(N=S(C)(C)=O)cc(C)c12` [Example 2.14], at MNK2a, the IC50 came out at 108 nM. Besides, on MNK1a, the inhibition at 1 µM turned out to be 19%.
For `CO[C@@H]1CN(C(=O)OCc2ccccc2)C[C@H]1Oc1cc(F)ccc1Nc1ncnc2cc(N=S3(=O)CCCC3)cc(C)c12` [Example 2.15] the same measures were 78 nM and 31%.
For `CO[C@@H]1CN(C(=O)OCc2ccccc2)C[C@H]1Oc1ncccc1Nc1ncnc2cc(N=S3(=O)CCCC3)cc(C)c12` [Example 2.16] the same measures were 82 nM and 55%.
The matching figures for `CO[C@@H]1CN(C(=O)OCc2ccccc2)C[C@H]1Oc1ncccc1Nc1ncnc2cc(N=S(C)(C)=O)cc(C)c12` [Example 2.17]: 21 nM and 18%.
Regarding `Cc1cc(N=S2(=O)CCCC2)cc2ncnc(Nc3cccnc3O[C@@H]3CN(C)C[C@H]3O)c12` [Example 2.18], the IC50 on MNK2a came to 49 nM; against MNK1a, 359 nM.
`Cc1cc(N=S(C)(C)=O)cc2ncnc(Nc3cccnc3O[C@@H]3CN(C)C[C@H]3O)c12` [Example 2.19]: the IC50 at MNK2a came out at 132 nM. In addition, on MNK1a, the inhibition at 1 µM was 45%.
`Cc1cc(N=S(C)(C)=O)cc2ncnc(Nc3cccnc3O[C@@H]3CN(S(C)(=O)=O)C[C@H]3O)c12` [Example 2.20]: the IC50 on MNK2a was determined as 27 nM. For the same compound, the inhibition at 1 µM on MNK1a was determined as 77%.
The matching figures for `CC(=O)N1C[C@@H](O)[C@H](Oc2ncccc2Nc2ncnc3cc(N=S(C)(C)=O)cc(C)c23)C1` [Example 2.21]: 179 nM and 57%.
The matching figures for `Cc1cc(N=S2(=O)CCCC2)cc2ncnc(Nc3cccnc3O[C@@H]3CN(S(C)(=O)=O)C[C@H]3O)c12` [Example 2.22]: 7 nM and 86%.
For `CC(=O)N1C[C@@H](O)[C@H](Oc2ncccc2Nc2ncnc3cc(N=S4(=O)CCCC4)cc(C)c23)C1` [Example 2.23] the same measures were 23 nM and 75%.
In the case of `Cc1cc(N=S(C)(C)=O)cc2ncnc(Nc3cccnc3O[C@H]3COC[C@@H]3O)c12` [Example 2.28], the IC50 on MNK2a worked out at 11 nM. Moreover, the inhibition at 1 µM at MNK1a was found to be 85%.
Take `Cc1cc(N=S2(=O)CCCC2)cc2ncnc(Nc3ccc(F)cc3O[C@H]3COC[C@@H]3O)c12` [Example 2.29]: the IC50 on MNK2a stood at 2 nM. For the same compound, at MNK1a, the IC50 was found to be 40 nM and the inhibition at 1 µM stood at 104%.
